Several values for one entry are separate records, joined by “and”; a condition that tells them apart may be missing. Equal entries are not always repeated. Residues, ends and D or L forms follow the SMILES beside them.
Columns and labels:
[1] = system: platelets (adhesion to absorbed thrombospondin (TSP)); assay: Competitive assay, platelet adhesion to absorbed thrombospondin (TSP); assay type: cell-based; conditions: for % Buffer Control (platelet adhesion): absorbed protein TSP, platelets preincubated with 250 μg/ml compound
Protocol: (§1) The number of adherent platelets was essentially determined as previously described (Tuszynski et al., Anal. Bio. supra). Briefly, 100 μl of 5×10^8 platelets/ml washed as previously described (Tuszynski, et al., Blood 72, 109-225, 1988) were added to microtiter plates, the wells of which were treated with 50 μl of a 40 μg/ml peptide or protein solution (Hepes buffered saline, pH 7.4). Solutions were dried at room temperature after incubation in a fume hood for two hours. Wells were blocked for one hour with 1% BSA. Platelets (100 μl) were incubated in the wells for 30 minutes and non-adherent platelets were removed by aspiration. Wells were washed 3× with 200 μl of Hepes buffered saline, pH 7.4. The number of adherent platelets was determined by measuring the platelet-derived protein using the BCA protein assay.
(§2) The direct adhesion assay of Example 7 was modified to measure the ability of the peptide compounds of the invention to compete with intact thrombospindin or fibronectin for adhesion of platelets.
(§3) In this assay, thrombospondin (TSP) or fibronectin (FN) was absorbed onto microtiter dish as described in Example 7. The assay was similar to Example 7 except that before platelets were added to the microtiter dishes they were preincubated with 250 μg/ml of various ligands.

[2] = system: Mouse B16 F10 melanoma cells; assay: Direct adhesion assay: melanoma cells adhering to ligand-coated wells; assay type: cell-based; conditions: for Adhesion as % Thrombospondin: absorbed compound 2 μg per well, B16 F10 melanoma cells, 1 hour at 37° C., cell protein by BCA, absorbance 562 nm; for adhesive properties (in words): melanoma cell adhesion to coated peptide
Protocol: (§4) It is believed that thrombospondin acts in metastasis through its adhesive properties. An assay was developed, generally in accordance with the disclosure of Tuszynski et al. (Anal. Bio. (1990) 184:189-91) which evaluates the ability of melanoma cells to adhere to the thrombospondin fragments or analogs of the invention. In this assay, wells of a 96-well microtiter dish (Costar, Cambridge, Mass.) were incubated for two to three hours with 50 μl of a 40 μg/ml solution of various ligands in 20 mM NaCl, pH 7.3. Thrombospondin (purified by the method of Tuszynski et al., J. Biol. Chem. (1985) 260:12240-5), fibronectin (Sigma Chemical Co., Missouri) served as the positive control. Bovine serum albumin (BSA) (Sigma Chemical Co.) served as the negative control. Thrombospondin analogs of the invention p1, p5 and p6 were synthesized as described in Examples 1 through 3. Following peptide adhesion to the microtiter dish, the wells were aspirated, treated with 200 μl phosphate buffered saline (PBS) containing 1% BSA for 1 hour and then washed three more times with 200 μl PBS.
(§5) Mouse B16 F10 melanoma cells were grown and harvested during log phase of growth using standard procedures. The harvested cells were washed two times in serum-free Dulbecco's minimum essential medium (DMEM) (Flow Laboratories) and suspended in DMEM at a final concentration of 4×10^5 cells/ml. Of the cell suspension 100 μl was added to each well of the microtiter dish containing the various ligands and the dish incubated at 37° C. in a CO2 incubator for 1 hour. Nonadherent cells were removed by aspiration and the wells washed three times with 200 μl of PBS. The total cell-associated protein was determined by dissolving the attached cells directly in the microtiter wells with 200 μl of the Pierce BCA working solution (Pierce Chem. Co. Booklet No. 23225 (1987)). The plate was covered with an adhesive mylar sheet (Flow Labs) and incubated at 60° C. for 30 minutes. Plates were allowed to cool to room temperature, cover sheets were removed, and the absorbance of each well was determined at 562 nm with a microtiter plate reader (Biotek, Burlington, Vt.)

[3] = system: B16 F10 mouse melanoma cells; assay: Antimetastatic activity in vivo, lung tumors after i.v. melanoma cells; parameters: species or system C57 black mice; conditions: for % buffer control (number of lung tumors): i.v. with 5×10^5 B16 F10 cells, lung tumors counted after 16 days; for number of tumors versus controls (in words) / size of lung tumors (in words): treated C57 black mice, 16 days
Source text: Briefly, C57 black mice were intravenously injected with 5×10^5 B16 F10 mouse melanoma cells in the presence of either control buffer (Hepes buffered saline, pH 7.4), or the indicated amount of peptide compound of the invention p1, p5 or p6. After 16 days, the mice were sacrificed and the number of lung tumors counted.

platelets = assay: Direct platelet adhesion assay; assay type: cell-based; conditions: for Adherence as % Control: wells treated with 50 μl of 40 μg/ml peptide or protein, platelets incubated 30 minutes, BCA protein assay; for adherence to platelets (in words): at this concentration (40 μg/ml coating solution)
Protocol: as §1

[4] = system: platelets (adhesion to absorbed fibronectin (FN)); assay: Competitive assay, platelet adhesion to absorbed fibronectin (FN); assay type: cell-based; conditions: for % Buffer Control (platelet adhesion): absorbed protein FN, platelets preincubated with 250 μg/ml compound
Protocol: as §1, §2, §3

[5] = system: platelets in platelet-rich-plasma (PRP); assay: Platelet aggregation assay in platelet-rich plasma, ADP-initiated; assay type: cell-based; conditions: 0.5 ml PRP, aggregation initiated with 1 μM ADP
Protocol: Platelet aggregation was monitored on a single-channel aggregometer equipped to measure luminescence (Chromo-Log, Havertown, Pa.). Platelet-rich-plasma (PRP) was obtained from whole blood anti-coagulated with 0.38% Sodium Citrate by centrifugation at 150×g for 20 minutes. Peptides were added to 0.5 ml of PRP and aggregation initiated with 1 μM ADP. Buffer blanks contained diluent (water) but no peptide.

[6] = system: melanoma cells (adhesion to absorbed intact thrombospondin); assay: Competitive assay to measure thrombospondin specific adhesion to melanoma cells; assay type: cell-based, mouse; conditions: for competition with thrombospondin for adhesion to melanoma cells (in words): at this concentration (100 μg/ml)
Protocol: as §4, §5
The direct adhesion assay of Example 5 was modified to measure the ability of the peptide compounds of the invention to compete with intact thrombospondin for adhesion to melanoma cells.
In this assay, intact thrombospondin is absorbed onto microtiter dishes as described in Example 5. […]

[7] = cells preincubated 15 minutes with 100 μg/ml compound
[8] = cells preincubated with 10 μg/ml compound
[9] = cells preincubated with 50 μg/ml compound
[10] = cells preincubated with 200 μg/ml compound
[11] = cells preincubated with 300 μg/ml compound

| Compound | % Buffer Control (platelet adhesion) [1] | Adhesion as % Thrombospondin [2] | adhesive properties (in words) [2] | % buffer control (number of lung tumors) ([3]; 30 μg/mouse) | number of tumors versus controls (in words) [3] | Adherence as % Control (platelets) | % Buffer Control (platelet adhesion) [4] | inhibition of platelet aggregation (in words, FIG. 1) [5] | competition with thrombospondin for adhesion to melanoma cells (in words) [6] | % of buffer control (melanoma cell adhesion to thrombospondin) [6, 7] | % of buffer control (melanoma cell adhesion to thrombospondin) [6, 8] | % of buffer control (melanoma cell adhesion to thrombospondin) [6, 9] | % of buffer control (melanoma cell adhesion to thrombospondin) [6, 10] | % of buffer control (melanoma cell adhesion to thrombospondin) [6, 11] | % buffer control (number of lung tumors) ([3]; 100 μg/mouse) | % buffer control (number of lung tumors) ([3]; 300 μg/mouse) | size of lung tumors (in words) [3] | adherence to platelets (in words) (platelets) | competition with thrombospondin for platelet adhesion (in words) ([1]; 250 μg/ml) | competition with fibronectin for platelet adhesion (in words) ([4]; 250 μg/ml) |
| --- | --- | --- | --- | --- | --- | --- | --- | --- | --- | --- | --- | --- | --- | --- | --- | --- | --- | --- | --- | --- |
| fWSPCSVTCGNH2 [Compound p5] | 107% | 79% | display adhesive properties | 87% | statistically fewer tumors than controls | 2.1% | 109% | inhibit platelet aggregation | compete to a lesser degree | 62% and 108% and 83% | 99% | 104% | 89% | 83% | – | – | – | – | – | – |
| WSPCSVTCGNH2 [Compound p6] | 98% | 70% | display adhesive properties | 91% | statistically fewer tumors than controls | 38% | 96% | inhibit platelet aggregation | compete to a lesser degree | 89% | – | – | 74% | 74% | 102% | 50% | smaller in size | adhere to platelets | – | – |
| fibronectin | – | – | – | – | – | 83% | – | – | – | – | – | – | – | – | – | – | – | – | – | – |
| CC(C)[C@H](NC(=O)[C@H](CO)NC(=O)[C@H](CS)NC(=O)[C@@H]1CCCN1C(=O)[C@H](CO)NC(=O)[C@@H](N)Cc1c[nH]c2ccccc12)C(=O)N[C@H](C(=O)N[C@@H](CS)C(=O)NCC(=O)O)[C@@H](C)O [Compound p1, WSPCSVTCG] (H-WSPCSVTCG-OH) | 71% | 98% | display adhesive properties | 49% | statistically fewer tumors than controls | – | 108% | inhibit platelet aggregation | able to effectively compete with thrombospondin | – | 49% | 40% | – | – | – | – | smaller in size | adhere to platelets | effectively competed with thrombospondin | did not compete with fibronectin |
| Thrombospondin: large molecular weight 180 kD glycoprotein of three identical disulfide-linked polypeptide chains; purified intact protein, positive control | – | 100% | – | – | – | 100% | – | – | – | – | – | – | – | – | – | – | – | – | – | – |

Reference: patent US5840692A, “Peptide fragments and analogs of thrombospondin” (Allegheny University of the Health Sciences, priority 1995, dated 1998)
